In brackets after ≈: the same amount, converted by molar mass. Residues, ends and D or L forms follow the SMILES beside them.
Experiments:
[1] = biological target: proteinase K (Parengyodontium album, UniProt P06873); assay: Protease stability by MIC change; assay type: in vitro ADME; conditions: proteinase K 10 μg/mL, 37℃, 1 h, then MIC
[2] = tested on: S. aureus clinical isolates (n = 40); assay type: cell-based
Description: (§1) Bacterial strains and growth conditions: All Gram-negative and Gram-positive bacterial strains (Supplementary Table S8) were cultured in Luria-Bertani (LB) or trypticase soy broth (TSB) agar plates, respectively, and incubated overnight at 37 °C unless specifically indicated. A single colony of the tested bacterial strains was inoculated into medium broth with shaking at 220 rpm for further experiments.
(§2) Minimal inhibitory concentrations: Antimicrobial susceptibility testing was performed by broth microdilution method for AMPs against Gram-positive and Gram-negative pathogens above mentioned, following the methods of document CLSI M100-ED34.[43] The MICs were defined as the lowest concentrations that inhibit visible growth of the tested bacteria. E. coli ATCC 25,922 and S. aureus ATCC 29,213 were served as quality controls.

[3] = tested on: four Gram-positive and five Gram-negative bacteria, including ESKAPE pathogens; assay type: cell-based
Description: as §1, §2

[4] = tested on: S. aureus ATCC 29213; assay: microbe, parasite or virus in culture; assay type: cell-based; conditions: ATCC 29213
[5] = tested on: S. pyogenes DL02; assay: microbe, parasite or virus in culture; assay type: cell-based; conditions: DL02
Description: as §1, §2

[6] = tested on: E. faecium QF31; assay: microbe, parasite or virus in culture; assay type: cell-based; conditions: QF31
Description: as §1, §2

[7] = tested on: E. faecium MC38; assay: microbe, parasite or virus in culture; assay type: cell-based; conditions: MC38
Description: as §1, §2

[8] = tested on: E. coli ATCC 25922; assay: microbe, parasite or virus in culture; assay type: cell-based; conditions: ATCC 25922
Description: as §1, §2

[9] = tested on: E. faecalis SF23-1; assay: microbe, parasite or virus in culture; assay type: cell-based; conditions: SF23-1
Description: as §1, §2

[10] = tested on: E. faecalis JH2-2; assay: microbe, parasite or virus in culture; assay type: cell-based; conditions: JH2-2
Description: as §1, §2

[11] = tested on: E. faecalis ES01; assay: microbe, parasite or virus in culture; assay type: cell-based; conditions: ES01
Description: as §1, §2

[12] = tested on: S. aureus M92-1; assay: microbe, parasite or virus in culture; assay type: cell-based; conditions: M92-1
Description: as §1, §2

[13] = tested on: S. aureus M147-2; assay: microbe, parasite or virus in culture; assay type: cell-based; conditions: M147-2
Description: as §1, §2

[14] = tested on: P. aeruginosa PA14; assay: microbe, parasite or virus in culture; assay type: cell-based; conditions: PA14
Description: as §1, §2

[15] = tested on: S. agalactiae DL03; assay: microbe, parasite or virus in culture; assay type: cell-based; conditions: DL03
Description: as §1, §2

[16] = tested on: K. pneumoniae 9-1; assay: microbe, parasite or virus in culture; assay type: cell-based; conditions: 9-1
Description: as §1, §2

[17] = tested on: A. baumannii 7979; assay: microbe, parasite or virus in culture; assay type: cell-based; conditions: 7979
Description: as §1, §2

[18] = tested on: S. suis SH0918; assay: microbe, parasite or virus in culture; assay type: cell-based
Description: as §1, §2

[19] = tested on: S. aureus YZSA-24; assay: microbe, parasite or virus in culture; assay type: cell-based; conditions: YZSA-24
Description: as §1, §2

[20] = tested on: P. aeruginosa PAO1; assay: microbe, parasite or virus in culture; assay type: cell-based; conditions: PAO1
Description: as §1, §2

[21] = tested on: E. faecium HFY01; assay: microbe, parasite or virus in culture; assay type: cell-based; conditions: HFY01
Description: as §1, §2

[22] = tested on: S. aureus YZSA-21; assay: microbe, parasite or virus in culture; assay type: cell-based; conditions: YZSA-21
Description: as §1, §2

[23] = tested on: E. faecalis J2; assay: microbe, parasite or virus in culture; assay type: cell-based; conditions: J2
Description: as §1, §2

[24] = tested on: S. aureus YZSA-15; assay: microbe, parasite or virus in culture; assay type: cell-based; conditions: YZSA-15
Description: as §1, §2

[25] = tested on: S. suis P1/7; assay: microbe, parasite or virus in culture
Description: as §1
as §2, with “bacteria.” for “bacteria. E. coli ATCC 25,922 and S. aureus ATCC 29,213 were served as quality controls.”

[26] = tested on: mouse red blood cells; assay: Haemolysis assay; assay type: cell-based
Description: Red blood cells (RBCs) from Kunming mice were used to evaluate the hemolytic toxicity of the selected AMPs. Fresh red blood cells were collected from mice and washed until the supernatant was completely cleared. Added 19-fold volume of PBS to prepare 2% RBC suspension. […] Afterward, the mixture was centrifuged at 1500 rpm for 10 min. Then transferred 30 µL supernatant to 96-well plate containing 70 µL PBS. The absorbance of the sample was measured at 450 nm by a microplate reader. PBS and 2% Triton X-100 was used as negative and positive control, respectively. The experiment was performed in triplicate and the hemolysis activity was calculated by the formula hemolysis = [(Absorbancesample- AbsorbancePBS)/(AbsorbanceTriton x-100-AbsorbancePBS)]×100%.

[27] = MIC in the presence of 50% rabbit plasma; S. aureus, E. faecalis, S. suis, S. enteritis, K. pneumoniae
[28] = tested on: chymotrypsin; conditions: 1 h, then MIC
[29] = tested on: Caco-2; assay: Cytotoxicity, CCK-8; assay type: cell-based, human
Description: (§3) The cytotoxicity of selected AMPs to human laryngeal carcinoma epithelial cell (HEp-2) and colorectal adenocarcinoma cell (Caco-2) lines was evaluated using the CCK-8 method as previously described.[55] The cells were cultured in high-glucose dulbecco’s modified eagle medium (DMEM) supplemented with 10% fetal bovine serum (FBS) and 1% penicillin-streptomycin. Cells were inoculated in 96-well sterile microtiter plate at 5000 cells/100 μL. After cultured (37℃, 5%CO2) for 24 h, cells were treated with AMPs at concentrations ranging from 8 to 128 μg/mL for another 48 h. Afterward, the culture medium was replaced by fresh DMEM medium containing 10% CCK-8 and incubated for 1 h. The absorbance of the solution was measured at 450 nm by a microplate reader. Cell viability was calculated as: % cell viability = [(Abssample - Absblank)/(Absnegative - Absblank)]×100%. Each experiment was carried out with three replicates.

[30] = tested on: HEp-2; assay: Cytotoxicity, CCK-8; assay type: cell-based, human
Description: as §3

[31] = tested on: S. enteritis S1; assay: organism not typed; assay type: cell-based
Description: as §1, §2

[32] = tested on: pepsin; conditions: pepsin 10 μg/mL, 37℃, 1 h, then MIC
Description: (§4) To understand stability of peptide under different pH conditions, AMP solutions were prepared at different pH values (pH = 2, 4, 6, 8, 10, and 12) and then incubated at room temperature for 1 h. For the temperature stability, AMP solutions were incubated at 20, 25, 40, 60, 80, and 100℃ for 1 h. For the protease stability, AMP solutions were incubated with pepsin, trypsin, and proteinase K at different concentration of 10 μg/mL at 37℃ for 1 h.[52],[53] After incubation, the MIC values peptides were determined using the MIC experimental protocol.

[33] = tested on: trypsin; conditions: trypsin 10 μg/mL, 37℃, 1 h, then MIC
Description: as §4

Chain of proteinase K (P06873 106-384): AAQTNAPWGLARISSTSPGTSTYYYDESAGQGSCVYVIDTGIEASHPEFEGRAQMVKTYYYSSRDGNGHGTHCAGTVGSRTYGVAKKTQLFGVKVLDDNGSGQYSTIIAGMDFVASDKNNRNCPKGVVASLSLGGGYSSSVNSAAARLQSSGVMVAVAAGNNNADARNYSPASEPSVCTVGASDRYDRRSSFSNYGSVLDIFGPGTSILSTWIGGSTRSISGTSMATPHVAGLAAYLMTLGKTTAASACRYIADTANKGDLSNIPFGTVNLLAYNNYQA

SMILES: CC[C@H](C)[C@H](NC(=O)[C@H](C)NC(=O)[C@H](CCC(N)=O)NC(=O)[C@H](Cc1c[nH]c2ccccc12)NC(=O)[C@H](C)N)C(=O)N[C@@H](C)C(=O)N[C@@H](CCCNC(=N)N)C(=O)N[C@@H](CC(C)C)C(=O)N[C@H](C(=O)N[C@@H](CCCCN)C(=O)NCC(=O)N[C@@H](CCCNC(=N)N)C(=O)NCC(=O)N[C@@H](CCCNC(=N)N)C(=O)N[C@@H](CCCCN)C(=O)N[C@@H](CCCCN)C(=O)N[C@@H](Cc1ccc(O)cc1)C(=O)NCC(=O)N[C@@H](CCCNC(=N)N)C(=O)N[C@H](C(=O)N[C@H](C(=O)N[C@H](C(=O)N[C@H](C(=O)NCC(=O)O)[C@@H](C)CC)[C@@H](C)CC)[C@@H](C)CC)[C@@H](C)CC)[C@@H](C)CC [AMP_S13] (H-AWQAIARLIKGRGRKKYGRIIIIG-OH)
- antimicrobial activity (MIC) after protease incubation [1]: only a two-fold decrease in MIC
- MICs, range over clinical isolates [2]: 4 to 32 µg/mL
- MIC values, range [3]: 2 to 16 µg/mL
- MICs, range over panel [3]: 2 to 16 µg/mL
- MIC [4]: 8 µg/mL (≈ 2.92 µM)
- MIC [5]: 4 µg/mL (≈ 1.46 µM)
- MIC [6]: 4 µg/mL (≈ 1.46 µM)
- MIC [7]: 4 µg/mL (≈ 1.46 µM)
- MIC [8]: 8 µg/mL (≈ 2.92 µM)
- MIC [9]: 8 µg/mL (≈ 2.92 µM)
- MIC [10]: 8 µg/mL (≈ 2.92 µM)
- MIC [11]: 4 µg/mL (≈ 1.46 µM)
- MIC [12]: 8 µg/mL (≈ 2.92 µM)
- MIC [13]: 8 µg/mL (≈ 2.92 µM)
- MIC [14]: 8 µg/mL (≈ 2.92 µM)
- MIC [15]: 4 µg/mL (≈ 1.46 µM)
- MIC [16]: 16 µg/mL (≈ 5.84 µM)
- MIC [17]: 2 µg/mL (≈ 0.73 µM)
- MIC [18]: 4 µg/mL (≈ 1.46 µM)
- MIC [19]: 16 µg/mL (≈ 5.84 µM)
- MIC [20]: 8 µg/mL (≈ 2.92 µM)
- MIC [21]: 4 µg/mL (≈ 1.46 µM)
- MIC [22]: 8 µg/mL (≈ 2.92 µM)
- MIC [23]: 8 µg/mL (≈ 2.92 µM)
- MIC [24]: 8 µg/mL (≈ 2.92 µM)
- MIC [25]: 4 µg/mL (≈ 1.46 µM)
- HC50/MIC ([26]; MIC values against S. aureus ATCC 29213): 116.08
- HC50 ([26]; mouse red blood cells, 37℃, 1 h): 928.6 µg/mL
- antimicrobial activity in plasma [27]: remained effective
- antimicrobial activity (MIC) after protease incubation [28]: maintained its activity
- CC50 ([29]; 48 h): 1011 µg/mL (≈ 369 µM)
- CC50/MIC ([29]; Caco-2, MIC values against S. aureus ATCC 29213): 126.38
- CC50 ([30]; 48 h): 353.3 µg/mL (≈ 129 µM)
- CC50/MIC ([30]; HEp-2, MIC values against S. aureus ATCC 29213): 44.16
- MIC [31]: 16 µg/mL (≈ 5.84 µM)
- antimicrobial activity (MIC) after protease incubation [32]: maintained its activity
- antimicrobial activity (MIC) after protease incubation [33]: maintained its activity

Reference: paper PMC12203862, “BroadAMP-GPT: AI-Driven generation of broad-spectrum antimicrobial peptides for combating multidrug-resistant ESKAPE pathogens” (Gut Microbes, 2025)
